Results on one compound are retold here after article PMC5628579, “Potent mechanism-based sirtuin-2-selective inhibition by an in situ-generated occupant of the substrate-binding site, “selectivity pocket” and NAD^+-binding site” (Chemical Science, 2017).

One assay has as its system H3K9Ac (SIRT1 substrate). The assay can be described thus: Western blot of H3K9Ac in MDA-MB-231 cells. In kind it is cell-based, human. As to conditions: 6 h. The method, then:
MCF-7 and MDA-MB-231 cells were plated in 96-well plates (initial density: 1 × 10^3 cells per well) and incubated at 37 °C. After 24 h, test compound solutions (50 μL/well) of varying concentrations in medium (DMEM and Leibovitz's L-15 for MCF-7 and MDA-MB-231 cells respectively) for were added to the cells at 37 °C under 5% CO2 in air and left to react for 72 h. Thereafter, the mixtures were treated with 10 μL of AlamarBlue® (AbD Serotec, #BUF012A), incubation was continued at 37 °C for 3 h. The fluorescence in each well was measured with an ARVOTM X3 microplate reader (λex = 540 nm; λem = 590 nm). With the obtained fluorescence readings, it was possible to calculate the percentage of cell growth.
MDA-MB-231 cells (5 × 10^5 cells/2 mL/dish) were treated for 6 h with the test compounds at the indicated concentrations in the cell culture medium, before the cells were collected and extracted with SDS buffer. The protein concentrations of the lysates were determined using a BCA protein assay.
Equivalent amounts of protein from each lysate were resolved in 5–20% SDS-polyacrylamide gels and transferred onto PVDF membranes. […]
For the differentiation study, the medium was changed to DMEM supplemented with 2% FBS. After incubation with or without 36 for 72 h, the cell morphology was examined using a microscope (Olympus CKX41) and further analyzed with the Photomeasure software (Kenis Ltd.). […]
On the technique in general: In western blotting, separated proteins are transferred to a membrane and probed.

The target in another assay is T1, SIRT3 (Homo sapiens, UniProt Q9NTG7).
T1 sequence (Q9NTG7 1-399): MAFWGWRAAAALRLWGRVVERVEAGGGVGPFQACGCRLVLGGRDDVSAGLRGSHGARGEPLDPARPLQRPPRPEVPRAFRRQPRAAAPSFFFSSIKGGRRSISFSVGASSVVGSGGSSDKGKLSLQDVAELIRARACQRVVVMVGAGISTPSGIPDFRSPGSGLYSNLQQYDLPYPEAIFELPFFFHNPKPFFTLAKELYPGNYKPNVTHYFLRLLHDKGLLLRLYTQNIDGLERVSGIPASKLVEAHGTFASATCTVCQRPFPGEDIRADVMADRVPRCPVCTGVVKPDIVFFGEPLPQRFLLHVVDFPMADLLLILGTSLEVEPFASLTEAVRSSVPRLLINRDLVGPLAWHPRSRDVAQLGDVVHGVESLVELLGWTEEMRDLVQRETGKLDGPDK
The assay can be described thus: Fluor de Lys SIRT3 assay.

The next assay concerns the target T2, SIRT1 (Homo sapiens, UniProt Q96EB6).
T2 sequence (Q96EB6 1-747): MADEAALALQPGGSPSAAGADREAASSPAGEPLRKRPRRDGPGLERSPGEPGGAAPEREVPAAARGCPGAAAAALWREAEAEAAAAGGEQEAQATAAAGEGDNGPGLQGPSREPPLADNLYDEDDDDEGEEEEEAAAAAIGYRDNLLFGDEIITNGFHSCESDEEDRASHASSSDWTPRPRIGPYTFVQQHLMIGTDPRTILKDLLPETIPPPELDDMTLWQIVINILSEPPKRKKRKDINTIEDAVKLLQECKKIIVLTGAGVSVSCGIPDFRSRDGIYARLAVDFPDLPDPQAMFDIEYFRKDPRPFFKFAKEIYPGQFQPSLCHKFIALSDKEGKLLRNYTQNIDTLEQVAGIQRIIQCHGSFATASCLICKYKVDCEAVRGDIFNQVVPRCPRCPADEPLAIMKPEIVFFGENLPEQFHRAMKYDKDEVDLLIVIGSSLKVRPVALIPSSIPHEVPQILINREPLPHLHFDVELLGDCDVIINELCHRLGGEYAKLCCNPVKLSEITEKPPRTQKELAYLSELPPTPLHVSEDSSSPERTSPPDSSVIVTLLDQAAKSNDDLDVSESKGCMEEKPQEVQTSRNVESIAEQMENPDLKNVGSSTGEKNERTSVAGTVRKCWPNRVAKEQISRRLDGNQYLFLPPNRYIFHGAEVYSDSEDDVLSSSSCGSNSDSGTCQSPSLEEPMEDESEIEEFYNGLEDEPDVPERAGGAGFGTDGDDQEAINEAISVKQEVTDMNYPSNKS
Kind of assay: Fluor de Lys SIRT1 assay.

The next assay relates to MDA-MB-231 cells. The assay can be described thus: Cell growth assay (AlamarBlue), MDA-MB-231. As to conditions: 72 h of treatment. In kind it is cell-based, human. For orientation: Resazurin is reduced to fluorescent resorufin, in cell work by metabolically active cells.
The target in another assay is T3, SIRT5 (Homo sapiens, UniProt Q9NXA8).
T3 sequence (Q9NXA8 37-310): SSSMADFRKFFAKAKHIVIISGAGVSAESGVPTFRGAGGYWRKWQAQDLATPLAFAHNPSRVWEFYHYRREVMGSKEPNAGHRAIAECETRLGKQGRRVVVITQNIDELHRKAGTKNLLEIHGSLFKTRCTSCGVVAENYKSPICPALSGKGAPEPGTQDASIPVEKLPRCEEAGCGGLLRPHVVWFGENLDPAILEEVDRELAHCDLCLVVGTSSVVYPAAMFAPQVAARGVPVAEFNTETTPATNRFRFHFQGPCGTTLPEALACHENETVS
The assay can be described thus: Fluor de Lys SIRT5 assay.

The IC50 is the concentration that gives 50% inhibition. The low end stands for higher potency, the high end for lower potency. As usually defined, the inhibition is the share of the control response that was lost under treatment. Broadly, the GI50 is the concentration at which growth is held to half of that of the control. Lower therefore signals more potent growth inhibition. On to `C[C@H](NC(=O)[C@H](CCCCNC(=S)CNC(=O)c1ccccc1Nc1cccc(OCCc2ccccc2)c1)NC(=O)OCc1ccccc1)C(N)=O` [Compound 36], for which the “H3K9Ac level (western blot)” value in the assay on H3K9Ac (SIRT1 substrate) is listed as “did not upregulate”. In addition, the IC50 is 9.49 ± 1.7 µM at SIRT3 and 1.56 ± 0.06 µM on SIRT1. Besides, the inhibition at 1 µM at SIRT3 (read-out: % inhibition at 1 μM SIRT3) was 2 ± 1.8%; at SIRT1 (read-out: % inhibition at 1 μM SIRT1) it was 29.5 ± 2.1%. For the same compound, the GI50 in the assay on MDA-MB-231 cells was found to be 8.43 ± 0.24 µM; with MDA-MB-231 cells (Homo sapiens, MDA-MB-231, 72 h), 8.3 µM. The inhibition at 10 µM on SIRT5 (read-out: % inhibition at 10 μM SIRT5) was 4 ± 2.6%. Further, at SIRT5 (read-out: % inhibition at 50 μM SIRT5), the inhibition at 50 µM stood at 10%.
